Test system: mouse embryo fibroblasts (MEFs)
Test: ECM gene expression and protein production in MEFs
Assay type: cell-based
Experimental: FIG. 26C. Proline rescues both HF stimulated and HF inhibited gene expression. MEFs were treated with or without HF (50 nM) and/or Proline (2 mM) for 4 hours (CHOP, S100A4) or 24 hours (CoLIA1, ColIA2). DMSO was used as vehicle control. Changes in mRNA levels are expressed as fold-change relative to control and normalized to expression of TBP. Error bars reflect standard deviation of determinations from plates of cells treated in triplicate, confidence interval (p-value) for the effect of HF alone versus HF+Pro was determined using a two-tailed Student's t test. Data are representative of two separate experiments.
FIG. 26D. HF-inhibition of collagen production is rescued by proline and doesn't affect overall protein synthesis. Cells were pre-incubated with HF with or without proline for 4 hours, and ^35S-methionine and HF with or without proline was added. 24 hours later, conditioned medium and total cell lysate was harvested. New production of Type I procollagen was measured in conditioned medium by Western blot, and bands quantitated using Image J quantitation software. The original blot is shown in FIG. 27; total protein synthesis was measured as TCA-precipitable ^35S in a scintillation counter. Error bars reflect standard deviation of triplicate determinations.
FIG. 33. Proline rescues HF-suppression of ECM protein production. MEFs were incubated for 4 hours in HF with or without 2 mM Pro, to measure new collagen production in conditioned medium (cells were washed into fresh DMEM/0.2% FBS with fresh HF and proline re-added, and either conditioned medium (for Type I procollagen) or total cell lysate (for fibronectin, […]) harvested twenty four hours later. Protein levels were assayed by Western blot.
Q-PCR was performed using the Roche LightCycle UPR system, using the following primers and probes: […]

O=C(CC1NCCCC1O)Cn1cnc2cc(Br)c(Cl)cc2c1=O (racemic) [HF, halofuginone]
mRNA levels of ColIA1, ColIA2, and S100A4 (50 nM HF, 4 or 24 hours): inhibited mRNA levels
CHOP mRNA expression (50 nM HF, 4 hours): stimulated
reversal of HF effects on ECM genes and proteins by proline (2 mM proline): reversed by the addition of 2 mM proline
production of fibronectin (24 hours): dramatically inhibited
production of secreted Type I procollagen protein (24 hours): dramatically inhibited

From patent US20120058133A1, “INHIBITION OF TRNA SYNTHETASES AND THERAPEUTIC APPLICATIONS THEREOF” (President and Fellows of Harvard College, priority 2009, published 2012)
